The subject of assay [1] is SKBR3 cells. The assay is described as follows: SKBR3 Cell Viability Assay (CellTiter Glo). The class given is cell-based. The settings on record: CellTiter Glo luminescence, read-out: MCL-1 CV SKBR3 EC50. The essentials:
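Viability read as CellTiter Glo luminescence after 72 h of compound exposure at 37° C./5% CO2, using 6,000 SKBR3 cells per well in McCoy 5A with 10% FBS. Percent inhibition scaled between DMSO wells and 10 μM puromycin wells.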

In assay [2] the target is MCL-1/Bim interaction (recombinant human MCL-1 protein, residues 171-327; biotinylated human Bim peptide, residues 51-76) (Homo sapiens (Human), UniProt Q07820). The assay is described as follows: MCL-1/Bim Binding AlphaLISA Assay. The settings on record: 0.0625 nM 6xHis-Mcl-1 (171-327), 0.0625 nM biotinylated-Bim peptide. The essentials:
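Compounds first sat 1 h with MCL-1 (171-327, 0.0625 nM), followed by 2 h with biotin-Bim 51-76 (0.0625 nM), then sequential 1 h anti-His acceptor and streptavidin donor bead steps; buffer Hepes pH 7.5 with NaCl, Brij 35, DTT, BSA. AlphaScreen signal converted to % inhibition using DMSO (negative) and protein/peptide-free (positive) controls.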
Background: Bead proximity is the source of the signal in Alpha formats.

Here are results for 33 compounds from patent publication US10703733B2, “MCL-1 inhibitors” (Gilead Sciences, Inc., priority 2018, dated 2020).

Structures are written as SMILES. Like-named read-outs stand apart in the source and are kept apart here.

For orientation: EC50 means the concentration needed to bring the measured effect to its halfway point. For orientation: IC50 means the concentration that gives 50% inhibition.

MCL-1/Bim interaction (recombinant human MCL-1 protein, residues 171-327; biotinylated human Bim peptide, residues 51-76), sequence (Q07820 171-327): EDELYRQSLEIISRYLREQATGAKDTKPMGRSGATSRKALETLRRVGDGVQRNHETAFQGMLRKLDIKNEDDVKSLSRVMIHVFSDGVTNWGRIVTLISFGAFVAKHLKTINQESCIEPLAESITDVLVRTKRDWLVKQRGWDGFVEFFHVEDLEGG

Turning to `CO[C@H]1/C=C/C[C@H](C)C[S@@](=O)(NC(=O)NC2CCC2)=NC(=O)c2ccc3c(c2)N(C[C@@H]2CC[C@H]21)C[C@@]1(CCCc2cc(Cl)ccc21)CO3` [Example 423], the EC50 in assay [1] (Homo sapiens, SK-BR-3, 72 h) stood at 169 nM. In addition, in assay [2], the IC50 stood at 0.056 nM.
The matching figures for `CO[C@H]1/C=C/CCC[S@@](=O)(NC(=O)CCc2ccccc2C(F)(F)F)=NC(=O)c2ccc3c(c2)N(C[C@@H]2CC[C@H]21)C[C@@]1(CCCc2cc(Cl)ccc21)CO3` [Example 87]: 10000 nM and 3.2 nM.
Regarding `CO[C@H]1/C=C/C[C@H](C)C[S@@](=O)(NC(=O)N[C@H]2C[C@@H]2OC)=NC(=O)c2ccc3c(c2)N(C[C@@H]2CC[C@H]21)C[C@@]1(CCCc2cc(Cl)ccc21)CO3` (single isomer, unassigned) [Example 195], the EC50 in assay [1] (72 hours) was found to be 29.6 nM. In assay [2], the IC50 worked out at 0.036 nM.
`CO[C@H]1/C=C/C[C@H](C)C[S@@](=O)(NC(=O)N2CC3(CCO3)C2)=NC(=O)c2ccc3c(c2)N(C[C@@H]2CC[C@H]21)C[C@@]1(CCCc2cc(Cl)ccc21)CO3` [Example 230]: the EC50 in assay [1] (Homo sapiens, SK-BR-3, 72 h) came out at 47.1 nM. Further, the IC50 in assay [2] is 0.027 nM.
Turning to `CO[C@H]1/C=C/C[C@H](C)C[S@@](=O)(NC(=O)N[C@@H]2C[C@H]2OC)=NC(=O)c2ccc3c(c2)N(C[C@@H]2CC[C@H]21)C[C@@]1(CCCc2cc(Cl)ccc21)CO3` (single isomer, unassigned) [Example 196], in assay [1] (72 hours), the EC50 was 99.2 nM. In assay [2], the IC50 was 0.04 nM.
On to `CO[C@H]1/C=C/C[C@H](C)C[S@@](=O)(NC(=O)c2cc3n(c2)C[C@@H](C)OC3)=NC(=O)c2ccc3c(c2)N(C[C@@H]2CC[C@H]21)C[C@@]1(CCCc2cc(Cl)ccc21)CO3` [Example 168], for which the EC50 in assay [1] (Homo sapiens, SK-BR-3, 72 h) stood at 74.2 nM. The half-inhibitory concentration (IC50) in assay [2] was 0.222 nM.
For the compound `COC1CN(C(=O)N[S@@]2(=O)=NC(=O)c3ccc4c(c3)N(C[C@@H]3CC[C@H]3[C@@H](OC)/C=C/CCC2)C[C@@]2(CCCc3cc(Cl)ccc32)CO4)C1` [Example 390], the EC50 in assay [1] (Homo sapiens, SK-BR-3, 72 h) is 86.4 nM. In addition, in assay [2], the half-inhibitory concentration (IC50) amounted to 0.061 nM.
For `CO[C@H]1/C=C/C[C@H](C)C[S@@](=O)(NC(=O)N[C@H]2CC2(F)F)=NC(=O)c2ccc3c(c2)N(C[C@@H]2CC[C@H]21)C[C@@]1(CCCc2cc(Cl)ccc21)CO3` [Example 161] the same measures were 168 nM and 0.025 nM.
The matching figures for `CO[C@H]1/C=C/C[C@H](C)[C@@H](C)[S@@](=O)(NC(=O)[C@H]2C[C@@](C)(O)C2)=NC(=O)c2ccc3c(c2)N(C[C@@H]2CC[C@H]21)C[C@@]1(CCCc2cc(Cl)ccc21)CO3` [Example 166]: 79.8 nM and 0.067 nM.
With `CO[C@H]1/C=C/C[C@H](C)C[S@@](=O)(NC(=O)c2cc3n(c2)CCOC3)=NC(=O)c2ccc3c(c2)N(C[C@@H]2CC[C@H]21)C[C@@]1(CCCc2cc(Cl)ccc21)CO3` [Example 139], the EC50 in assay [1] (Homo sapiens, SK-BR-3, 72 h) came out at 94.1 nM. In addition, in assay [2], the IC50 stood at 0.116 nM.
Consider `CO[C@H]1/C=C/CCC[S@@](=O)(NC(=O)CCn2cc(C)cn2)=NC(=O)c2ccc3c(c2)N(C[C@@H]2CC[C@H]21)C[C@@]1(CCCc2cc(Cl)ccc21)CO3` [Example 61], for which the EC50 in assay [1] (Homo sapiens, SK-BR-3, 72 h) came to 775 nM. Also, the IC50 in assay [2] is 0.1 nM.
For `CO[C@H]1/C=C/CCC[S@@](=O)(NC(=O)CCn2ncc3ccccc32)=NC(=O)c2ccc3c(c2)N(C[C@@H]2CC[C@H]21)C[C@@]1(CCCc2cc(Cl)ccc21)CO3` [Example 52] the same measures were 1950 nM and 0.9 nM.
For `CO[C@H]1/C=C/C[C@H](C)C[S@@](=O)(NC(=O)N[C@@H]2C[C@H]2c2cnn(C)c2)=NC(=O)c2ccc3c(c2)N(C[C@@H]2CC[C@H]21)C[C@@]1(CCCc2cc(Cl)ccc21)CO3` [Example 129] the same measures were 64.7 nM and 0.077 nM.
For `CO[C@H]1/C=C/C[C@H](C)C[S@@](=O)(NC(=O)N2CC(CC(F)F)C2)=NC(=O)c2ccc3c(c2)N(C[C@@H]2CC[C@H]21)C[C@@]1(CCCc2cc(Cl)ccc21)CO3` [Example 355] the same measures were 67.4 nM and 0.062 nM.
For `COc1nn(C)cc1C(=O)N[S@@]1(=O)=NC(=O)c2ccc3c(c2)N(C[C@@H]2CC[C@H]2[C@@H](OC)/C=C/[C@H](OC(=O)N(C)C)[C@H](C)C1C(=O)N(C)C)C[C@@]1(CCCc2cc(Cl)ccc21)CO3` (stereo partly drawn) [Example 395], in assay [1] (72 hours), the EC50 was determined as 6180 nM. In addition, the IC50 in assay [2] was determined as 5.27 nM.
In the case of `CO[C@H]1/C=C/C[C@H](C)C[S@@](=O)(NC(=O)c2cnsc2)=NC(=O)c2ccc3c(c2)N(C[C@@H]2CC[C@H]21)C[C@@]1(CCCc2cc(Cl)ccc21)CO3` [Example 411], the EC50 in assay [1] (Homo sapiens, SK-BR-3, 72 h) is 175 nM. Besides, the IC50 in assay [2] amounted to 0.178 nM.
For `CO[C@H]1/C=C/CCC[S@@](=O)(NC(=O)CC(F)(F)F)=NC(=O)c2ccc3c(c2)N(C[C@@H]2CC[C@H]21)C[C@@]1(CCCc2cc(Cl)ccc21)CO3` [Example 23] the same measures were 1450 nM and 0.8 nM.
`CO[C@H]1/C=C/C[C@H](C)C[S@@](=O)(NC(=O)c2cnn(CC3CC3)c2)=NC(=O)c2ccc3c(c2)N(C[C@@H]2CC[C@H]21)C[C@@]1(CCCc2cc(Cl)ccc21)CO3` [Example 419]: the EC50 in assay [1] (Homo sapiens, SK-BR-3, 72 h) turned out to be 135 nM. Besides, in assay [2], the IC50 came to 0.186 nM.
The matching figures for `COC1CN(C(=O)N[S@@]2(=O)=NC(=O)c3ccc4c(c3)N(C[C@@H]3CC[C@H]3[C@@H](OC)/C=C/C[C@H](C)C2)C[C@@]2(CCCc3cc(Cl)ccc32)CO4)C1` [Example 362]: 17.3 nM and 0.024 nM.
Regarding `CO[C@H]1/C=C/C[C@H](C)C[S@@](=O)(NC(=O)N[C@H]2C[C@@H]2C(F)F)=NC(=O)c2ccc3c(c2)N(C[C@@H]2CC[C@H]21)C[C@@]1(CCCc2cc(Cl)ccc21)CO3` [Example 311], in assay [1] (Homo sapiens, SK-BR-3, 72 h), the EC50 is 13.4 nM. Further, in assay [2], the IC50 was 0.024 nM.
For `CCO[C@H]1/C=C/[C@H](OC)[C@@H]2CC[C@H]2CN2C[C@@]3(CCCc4cc(Cl)ccc43)COc3ccc(cc32)C(=O)N=[S@](=O)(NC(=O)c2cn(C)nc2OC)C[C@H]1C` [Example 296] the same measures were 64.1 nM and 0.053 nM.
For `CO[C@H]1/C=C\C[C@H](C)[C@@H](C)[S@@](=O)(NC(=O)COC2CCOCC2)=NC(=O)c2ccc3c(c2)N(C[C@@H]2CC[C@H]21)C[C@@]1(CCCc2cc(Cl)ccc21)CO3` [Example 406] the same measures were 332 nM and 0.103 nM.
The matching figures for `COc1nn(C)cc1C(=O)N[S@@]1(=O)=NC(=O)c2ccc3c(c2)N(C[C@@H]2CC[C@H]2[C@@H](OC)/C=C/[C@H](OCCN2CCOCC2)[C@H](C)C1)C[C@@]1(CCCc2cc(Cl)ccc21)CO3` [Example 295]: 22 nM and 0.04 nM.
Take `CO[C@H]1/C=C/C[C@H](C)C[S@@](=O)(NC(=O)N[C@@H]2C[C@H]2C)=NC(=O)c2ccc3c(c2)N(C[C@@H]2CC[C@H]21)C[C@@]1(CCCc2cc(Cl)ccc21)CO3` [Example 433]: the EC50 in assay [1] (Homo sapiens, SK-BR-3, 72 h) worked out at 395 nM. In assay [2], the IC50 worked out at 0.133 nM.
For `CNc1nn(C)cc1C(=O)N[S@@]1(=O)=NC(=O)c2ccc3c(c2)N(C[C@@H]2CC[C@H]2[C@@H](OC)/C=C/C[C@H](C)C1)C[C@@]1(CCCc2cc(Cl)ccc21)CO3` [Example 212] the same measures were 37.6 nM and 0.04 nM.
For the compound `CCc1nn(C)cc1C(=O)N[S@@]1(=O)=NC(=O)c2ccc3c(c2)N(C[C@@H]2CC[C@H]2[C@@H](OC)/C=C/C[C@H](C)C1)C[C@@]1(CCCc2cc(Cl)ccc21)CO3` [Example 187], the EC50 in assay [1] (Homo sapiens, SK-BR-3, 72 h) amounted to 43.1 nM. Also, in assay [2], the half-maximal inhibitory concentration (IC50) was 0.107 nM.
With `CO[C@H]1/C=C/C[C@H](C)C[S@@](=O)(NC(=O)[C@H]2CCOC2)=NC(=O)c2ccc3c(c2)N(C[C@@H]2CC[C@H]21)C[C@@]1(CCCc2cc(Cl)ccc21)CO3` [Example 427], the EC50 in assay [1] (Homo sapiens, SK-BR-3, 72 h) came out at 332 nM. Moreover, in assay [2], the IC50 turned out to be 0.104 nM.
For `CO[C@H]1/C=C/CCC[S@@](=O)(NC(=O)CCc2nccn2C)=NC(=O)c2ccc3c(c2)N(C[C@@H]2CC[C@H]21)C[C@@]1(CCCc2cc(Cl)ccc21)CO3` [Example 43] the same measures were 2410 nM and 1.6 nM.
The matching figures for `COc1nn(C)cc1C(=O)N[S@@]1(=O)=NC(=O)c2ccc3c(c2)N(C[C@@H]2CC[C@H]2[C@@H](OC)/C=C/[C@H](OCCN(C)C)[C@H](C)C1)C[C@@]1(CCCc2cc(Cl)ccc21)CO3` [Example 403]: 13.8 nM and 0.059 nM.
For `COc1ccc(C(=O)N[S@@]2(=O)=NC(=O)c3ccc4c(c3)N(C[C@@H]3CC[C@H]3[C@@H](OC)/C=C/C[C@H](C)C2)C[C@@]2(CCCc3cc(Cl)ccc32)CO4)cc1` [Example 269] the same measures were 264 nM and 0.081 nM.
As to `CO[C@H]1/C=C/C[C@H](C)C[S@@](=O)(NC(=O)c2cc3n(c2)CCN(S(C)(=O)=O)C3)=NC(=O)c2ccc3c(c2)N(C[C@@H]2CC[C@H]21)C[C@@]1(CCCc2cc(Cl)ccc21)CO3` [Example 455], in assay [1] (Homo sapiens, SK-BR-3, 72 h), the EC50 was 146 nM. For the same compound, the IC50 in assay [2] is 0.147 nM.
Consider `CCn1cc(C(=O)N[S@@]2(=O)=NC(=O)c3ccc4c(c3)N(C[C@@H]3CC[C@H]3[C@@H](OC)/C=C/C[C@H](C)C2)C[C@@]2(CCCc3cc(Cl)ccc32)CO4)cn1` [Example 134], for which, in assay [1] (Homo sapiens, SK-BR-3, 72 h), the EC50 amounted to 59.6 nM. Further, the IC50 in assay [2] amounted to 0.072 nM.
The matching figures for `CCO[C@]1(C)C[C@H](NC(=O)N[S@@]2(=O)=NC(=O)c3ccc4c(c3)N(C[C@@H]3CC[C@H]3[C@@H](OC)/C=C/C[C@H](C)C2)C[C@@]2(CCCc3cc(Cl)ccc32)CO4)C1` [Example 225]: 51.3 nM and 0.043 nM.
